Results reported in US8329913B2, “Carbazole derivative, solvate thereof, or pharmaceutically acceptable salt thereof” (Zeria Pharmaceutical Co., Ltd., priority 2004, dated 2012).

Target: T1, human PPARγ (Homo sapiens, UniProt P37231)
T1 construct: 1.6 kb of fragment of the prepared plasmid pGEMT-hPPARg2 including human PPARγ gene; expressed in transfected cells; host or cells: CV-1 cells, transient transfection with pCI-hPPARg2, pCI-hRXRa and the reporter pGL3-PPRE3-TK
T1 sequence (P37231 1-505): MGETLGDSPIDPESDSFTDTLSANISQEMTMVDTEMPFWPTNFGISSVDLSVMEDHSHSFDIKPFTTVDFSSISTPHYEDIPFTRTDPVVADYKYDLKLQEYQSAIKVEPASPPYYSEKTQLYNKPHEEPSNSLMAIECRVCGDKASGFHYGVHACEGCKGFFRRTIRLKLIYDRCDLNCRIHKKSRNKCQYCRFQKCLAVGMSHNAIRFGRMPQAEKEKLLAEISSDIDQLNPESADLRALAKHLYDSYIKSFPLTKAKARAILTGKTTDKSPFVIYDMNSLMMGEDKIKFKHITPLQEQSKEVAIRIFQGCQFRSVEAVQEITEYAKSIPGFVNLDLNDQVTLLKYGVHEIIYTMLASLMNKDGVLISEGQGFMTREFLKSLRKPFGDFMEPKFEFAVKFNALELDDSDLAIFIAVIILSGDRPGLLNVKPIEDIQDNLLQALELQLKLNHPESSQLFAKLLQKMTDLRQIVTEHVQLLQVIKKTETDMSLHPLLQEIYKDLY
T1 sequence (P19793 1-462 partner): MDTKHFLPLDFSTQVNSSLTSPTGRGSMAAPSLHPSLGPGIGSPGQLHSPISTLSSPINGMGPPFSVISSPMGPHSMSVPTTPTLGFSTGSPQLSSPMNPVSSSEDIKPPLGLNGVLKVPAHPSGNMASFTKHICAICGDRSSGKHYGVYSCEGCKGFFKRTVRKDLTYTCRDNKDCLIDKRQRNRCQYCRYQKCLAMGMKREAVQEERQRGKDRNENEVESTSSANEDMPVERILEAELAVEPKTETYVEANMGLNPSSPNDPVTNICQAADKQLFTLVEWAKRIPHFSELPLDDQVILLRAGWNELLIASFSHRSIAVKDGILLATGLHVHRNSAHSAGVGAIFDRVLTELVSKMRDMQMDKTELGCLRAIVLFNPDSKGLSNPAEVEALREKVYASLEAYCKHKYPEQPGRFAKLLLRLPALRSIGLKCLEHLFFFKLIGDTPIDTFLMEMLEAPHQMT
Test: Human PPARγ antagonist assay (luciferase reporter in transfected CV-1 cells)
Assay type: cell-based
Conditions: CV-1 cells expressing human PPARγ and RXRα with reporter plasmid; pioglitazone 1 μM as stimulant; 24 hours; read-out: Human PPARγ antagonist activities, Inhibition IC50
Method in brief: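 CV-1 cells transiently co-transfected with human PPARγ2, RXRα, PPRE3-TK firefly luciferase and renilla plasmids were exposed 24 h at 37 °C to compound (10 nM–3 μM) plus 1 μM pioglitazone. Firefly/renilla ratios were scaled between pioglitazone alone (0%) and no addition (100%), and IC50 was taken at 50% inhibition.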

**Q.** For COc1cc(Cn2c3ccccc3c3c(OC(C)(C)C(=O)[O-])cccc32)ccc1OCc1nc(-c2ccccc2)oc1C.[Na+] [Example 28, sodium 2-{9-[3-methoxy-4-((5-methyl-2-phenyl-oxazole-4-yl)methoxy)-benzyl]-9H-carbazole-4-yloxy}-2-methyl-propionate], which IC50 is on record?
**A.** Its IC50 is 398 nM.
